Results on 8 molecules are retold here after patent US20020094993A1, “Compositions for repelling crawling insects” (priority 2000, published 2002).

The structures appear in SMILES notation. Where two headings read alike, the source gives them in different places.

This assay concerns garden ants (Lasius niger). Nature of the assay: Repellent effect of active compounds on treated surfaces against ants. It is filed as in vivo. More on the design: pest or weed control: dose or concentration left out as unconfirmed. On the procedure: Determination of a Repellent Effect of Active Compounds on Treated Surfaces against Ants
The tests are carried out in crystallizing dishes (Ø 30 cm, height 10 cm) using garden ants (Lasius niger). The walls of the dishes are treated with talc to prevent the test animals from escaping. The bottom of the dish is filled with a well-moistened layer of peat of a height of about 3-4 cm. At least 5 days before the beginning of the test, the dishes are populated with 300 ants which by the time the test starts will have built passages and hiding places. The dishes prepared in this manner can be used for several weeks as long as the substances examined are insecticide-free. The ants are fed with forest honey and crystalline sugar, and the feed is removed from the dishes during the tests.
Immediately before the start of the test, 2 glass plates (5×10 cm) are placed into the dish. One plate had been treated with active compound, the other remains untreated.
The activity of the ants can be monitored, for example, visually.
What is determined is the number of ants which, within a period of 15 minutes, cross the surface to be evaluated. The activity has to be so high that at least 100 contacts are achieved. If the activity is not high enough, the time for the test has to be extended accordingly. By evaluating the number of contacts on the treated and the untreated tile, a possible repellent action can be determined.
The results of the experiments with different compositions of repellent and additive are shown below. In the compositions, repellent and additive were mixed in a ratio of 100:100% by weight.

Setting [1] is: Lasius niger, 24 h, additive alone, after 1 day, read-out: % reduction of contacts after days.
[2] abbreviates: Lasius niger, 24 h, IR 3535/DEET table, after 1 day, read-out: % reduction of contacts after days.
[3] abbreviates: Lasius niger, 48 h, IR 3535/DEET table, after 2 days, read-out: % reduction of contacts after days.
The mark [4] stands for this setting: Lasius niger, 72 h, IR 3535/DEET table, after 3 days, read-out: % reduction of contacts after days.
Where [5] appears, read: Lasius niger, 96 h, IR 3535/DEET table, after 4 days, read-out: % reduction of contacts after days.
Where [6] appears, read: Lasius niger, 168 h, IR 3535/DEET table, after 7 days, read-out: % reduction of contacts after days.
Setting [7] is: Lasius niger, 192 h, IR 3535/DEET table, after 8 days, read-out: % reduction of contacts after days.
Where [8] appears, read: Lasius niger, 240 h, IR 3535/DEET table, after 10 days, read-out: % reduction of contacts after days.

In the case of `COc1ccc(C=O)c(OC)c1` [2,4-Dimethoxybenzaldehyde], the pest or weed control under setting [1] was found to be 0%.

`CCCCN(CCC(=O)OCC)C(C)=O` [Ex. 1]: the pest or weed control by setting is: under setting [2], 98%; under setting [3], 91%; under setting [4], 29%; under setting [5], 0%; under setting [6], 0%; under setting [7], 0%. In addition, the pest or weed control under setting [8] came out at 0%.

As for `OCC(O)CO` [Glycerol], the pest or weed control under setting [1] was found to be 0%.

Consider `O=C(O)c1ccccc1O` [Salicylic acid], for which the pest or weed control at 500 mg/m2 (Lasius niger, 24 h, read-out: % reduction of contacts after days) is 3%.

With `COc1cc(C=O)ccc1O` [Vanillin], the pest or weed control reads like this: under setting [1], 63%; (Lasius niger, 48 h, additive alone, after 2 days, read-out: % reduction of contacts after days) 46%; (Lasius niger, 72 h, additive alone, after 3 days, read-out: % reduction of contacts after days) 65%; (Lasius niger, 96 h, additive alone, after 4 days, read-out: % reduction of contacts after days) 83%; (Lasius niger, 168 h, additive alone, after 7 days, read-out: % reduction of contacts after days) 51%; (Lasius niger, 192 h, additive alone, after 8 days, read-out: % reduction of contacts after days) 35%. For the same molecule, the pest or weed control (Lasius niger, 216 h, additive alone, after 9 days, read-out: % reduction of contacts after days) came to 0% and the pest or weed control (Lasius niger, 240 h, additive alone, after 10 days, read-out: % reduction of contacts after days) came to 0%. Further, the “repellent effect of the additive on the ants” value (additive alone) is “slightly repellent effect”.

As to `CCN(CC)C(=O)c1cccc(C)c1` [compound 5, N,N-diethyl-m-toluamide], the pest or weed control came out at 100% under setting [2]; 76% under setting [3]; 0% under setting [4]; 0% under setting [5]; 27% under setting [6]; 14% under setting [7]. For the same molecule, the pest or weed control under setting [8] came to 0%.

With `O=Cc1ccc(O)cc1` [p-Hydroxybenzaldehyde], the pest or weed control under setting [1] was 23%.

On to `O=C/C=C/c1ccccc1` [trans-Cinnamaldehyde], for which the pest or weed control under setting [1] worked out at 0%.
